Experimental data as given in PubChem BioAssay (NCI).
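GI50: concentration for 50% inhibition of growth. TGI: total growth inhibition.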

How the values were obtained:
Assay in all cases: NCI-60 cell line screen, 384-well format
786-0 renal = tested on: 786-0 renal
A498 renal = tested on: A498 renal
A549 NSCLC = tested on: A549 NSCLC
ACHN renal = tested on: ACHN renal
BT-549 breast = tested on: BT-549 breast
CAKI-1 renal = tested on: CAKI-1 renal
CCRF-CEM leukemia = tested on: CCRF-CEM leukemia
COLO 205 colon = tested on: COLO 205 colon
EKVX NSCLC = tested on: EKVX NSCLC
HCC-2998 colon = tested on: HCC-2998 colon
HCT-116 colon = tested on: HCT-116 colon
HCT-15 colon = tested on: HCT-15 colon
HL-60(TB) leukemia = tested on: HL-60(TB) leukemia
HOP-62 NSCLC = tested on: HOP-62 NSCLC
HS 578T breast = tested on: HS 578T breast
HT29 colon = tested on: HT29 colon
IGROV1 ovarian = tested on: IGROV1 ovarian
K-562 leukemia = tested on: K-562 leukemia
KM12 colon = tested on: KM12 colon
LOX IMVI melanoma = tested on: LOX IMVI melanoma
M14 melanoma = tested on: M14 melanoma
MALME-3M melanoma = tested on: MALME-3M melanoma
MDA-MB-231 breast = tested on: MDA-MB-231 breast
MDA-MB-435 melanoma = tested on: MDA-MB-435 melanoma
MDA-MB-468 breast = tested on: MDA-MB-468 breast
MOLT-4 leukemia = tested on: MOLT-4 leukemia
NCI-H226 lung = tested on: NCI-H226 lung

## CS(=O)(=O)Nc1cc(-c2ccc3ncnc(Nc4ccc(F)c(Cl)c4)c3c2)cnc1Cl
786-0 renal
  GI50: 1350 nM
  TGI: 4820 nM
A498 renal
  GI50: 905 nM
  TGI: 4060 nM
A549 NSCLC
  GI50: 1370 nM
  TGI: 2840 nM
ACHN renal
  GI50: 1800 nM
  TGI: > 100000 nM
BT-549 breast
  GI50: 573 nM
  TGI: 2340 nM
CAKI-1 renal
  GI50: 492 nM
  TGI: 2020 nM
CCRF-CEM leukemia
  GI50: 166 nM
  TGI: 466 nM
COLO 205 colon
  GI50: 1210 nM
  TGI: 2990 nM
EKVX NSCLC
  GI50: 498 nM
  TGI: 2060 nM
HCC-2998 colon
  GI50: 1180 nM
  TGI: 2620 nM
HCT-116 colon
  GI50: 1140 nM
  TGI: 2640 nM
HCT-15 colon
  GI50: 885 nM
  TGI: 3140 nM
HL-60(TB) leukemia
  GI50: 158 nM
  TGI: 1060 nM
HOP-62 NSCLC
  GI50: 1430 nM
  TGI: 5190 nM
HS 578T breast
  GI50: 501 nM
  TGI: 2310 nM
HT29 colon
  GI50: 1110 nM
  TGI: 2520 nM
IGROV1 ovarian
  GI50: 154 nM
  TGI: 471 nM
K-562 leukemia
  GI50: 1520 nM
  TGI: 10600 nM
KM12 colon
  GI50: 2860 nM
  TGI: 19900 nM
LOX IMVI melanoma
  GI50: 1220 nM
  TGI: 2560 nM
M14 melanoma
  GI50: 1140 nM
  TGI: 4000 nM
MALME-3M melanoma
  GI50: 293 nM
  TGI: 1640 nM
MDA-MB-231 breast
  GI50: 2330 nM
  TGI: > 100000 nM
MDA-MB-435 melanoma
  GI50: 1380 nM
  TGI: 7870 nM
MDA-MB-468 breast
  GI50: 253 nM
  TGI: 769 nM
MOLT-4 leukemia
  GI50: 160 nM
  TGI: 348 nM
NCI-H226 lung
  GI50: 1440 nM
